According to ChEMBL document CHEMBL4219062, “Design, synthesis and evaluation of γ-turn mimetics as LSD1-selective inhibitors” (Bioorg Med Chem, 2018):
The source made the active and inactive calls. The rule behind the calls is not given here.

Legend:
A549 [1] = assay: cells; conditions: Homo sapiens, A549, 72 h, read-out: GI
A549 [2] = assay: Cell cycle arrest in human A549 cells assessed as accumulation at sub-G1 population at 6 to 8 uM by propidium iodide staining based flow cytometric analysis; format: functional; conditions: TDE = time-dependent effect
[3] = molecular target: T1, Amine oxidase [flavin-containing] B (Homo sapiens, UniProt P27338); assay: biochemical
T1 sequence (P27338 whole entry): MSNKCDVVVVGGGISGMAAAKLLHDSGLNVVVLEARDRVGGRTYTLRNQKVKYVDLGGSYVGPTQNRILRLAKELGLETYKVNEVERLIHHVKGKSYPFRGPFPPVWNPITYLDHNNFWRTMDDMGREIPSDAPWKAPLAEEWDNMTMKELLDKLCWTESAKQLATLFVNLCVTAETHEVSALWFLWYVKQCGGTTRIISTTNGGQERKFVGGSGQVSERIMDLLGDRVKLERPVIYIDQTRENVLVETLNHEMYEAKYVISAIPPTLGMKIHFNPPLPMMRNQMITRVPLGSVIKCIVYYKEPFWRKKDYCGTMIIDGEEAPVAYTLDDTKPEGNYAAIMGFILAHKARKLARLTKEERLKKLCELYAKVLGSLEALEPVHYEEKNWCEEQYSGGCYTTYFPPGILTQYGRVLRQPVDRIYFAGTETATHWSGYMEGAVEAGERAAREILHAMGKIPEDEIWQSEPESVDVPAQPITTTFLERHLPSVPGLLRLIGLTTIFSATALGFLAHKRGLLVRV
Description: Inhibition of recombinant human MAO-B expressed in baculovirus infected BTI insect cells using (4S)-4,5-dihydro-2-(6-hydroxybenzothiazolyl)-4-thiazolecarboxylic acid as substrate measured after 60 mins by chemiluminescence assay

[4] = molecular target: T2, Amine oxidase [flavin-containing] A (Homo sapiens, UniProt P21397); assay: biochemical
T2 sequence (P21397 whole entry): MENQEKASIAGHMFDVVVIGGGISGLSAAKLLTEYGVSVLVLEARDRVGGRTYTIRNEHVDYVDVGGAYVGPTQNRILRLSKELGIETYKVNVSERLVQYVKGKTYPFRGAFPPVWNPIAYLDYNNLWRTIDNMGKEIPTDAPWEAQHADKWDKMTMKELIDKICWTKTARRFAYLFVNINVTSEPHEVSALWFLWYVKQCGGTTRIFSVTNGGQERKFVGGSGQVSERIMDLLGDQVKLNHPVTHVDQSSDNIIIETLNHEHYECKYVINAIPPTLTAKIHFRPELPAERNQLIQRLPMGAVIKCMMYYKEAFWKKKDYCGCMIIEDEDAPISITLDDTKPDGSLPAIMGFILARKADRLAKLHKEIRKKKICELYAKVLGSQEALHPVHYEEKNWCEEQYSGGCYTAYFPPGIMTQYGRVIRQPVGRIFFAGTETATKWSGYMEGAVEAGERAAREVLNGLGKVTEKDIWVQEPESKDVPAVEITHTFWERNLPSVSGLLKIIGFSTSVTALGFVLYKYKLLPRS
Description: Inhibition of recombinant human MAO-A expressed in baculovirus infected BTI insect cells using (4S)-4,5-dihydro-2-(6-hydroxybenzothiazolyl)-4-thiazolecarboxylic acid as substrate measured after 60 mins by chemiluminescence assay

A549 [5] = assay: Cell cycle arrest in human A549 cells assessed as decrease in S population at 2 uM measured after 24 hrs by propidium iodide staining based flow cytometric analysis; format: functional
A549 [6] = assay: cells; conditions: Homo sapiens, A549, 72 h
Description: Growth inhibition of human A549 cells after 72 hrs by Alamarblue assay

A549 [7] = assay: Cell cycle arrest in human A549 cells assessed as increase in G1 population at 2 uM measured after 24 hrs by propidium iodide staining based flow cytometric analysis; format: functional
A549 [8] = conditions: Homo sapiens, 10 uM

## CNS(=O)(=O)c1cccc(-c2ccc([C@@H]3C[C@H]3NCCCCC3C(=O)N(Cc4ccccc4)CCN(c4ccccc4)C3=O)cc2)c1 (relative stereo)
A549 [1]
  inhibition of growth at 10 µM: 16%

## CNC(=O)c1cccc(-c2ccc([C@@H]3C[C@H]3NCCCCC3C(=O)N(Cc4cccc(Cl)c4)CCN(c4ccc(-c5ccccc5)cc4)C3=O)cc2)c1 (relative stereo)
A549 [1]
  inhibition of growth at 10 µM: 26%

## O=C1C(CCCCN[C@@H]2C[C@H]2c2ccccc2)C(=O)N(c2ccc(-c3ccccc3)cc2)CCN1Cc1cccc(Cl)c1 (relative stereo)
A549 [2]
  Activity: Tde
[3]
  IC50: > 100 µM
[4]
  IC50: > 100 µM
A549 [1]
  inhibition of growth at 10 µM: 100%
A549 [5]
  Activity: Active
A549 [6]
  GI50: 5.8 µM
A549 [7]
  Activity: Active

## CNC(=O)c1cccc(-c2ccc([C@@H]3C[C@H]3NCCCCC3C(=O)N(Cc4ccccc4)CCN(c4ccccc4)C3=O)cc2)c1 (relative stereo)
A549 [1]
  inhibition of growth at 10 µM: 26%

## COc1cccc(-c2ccc([C@@H]3C[C@H]3NCCCCC3C(=O)N(Cc4ccccc4)CCN(c4ccccc4)C3=O)cc2)c1 (relative stereo)
A549 [1]
  inhibition of growth at 10 µM: 16%

## O=C(N[C@@H](CCCCN[C@@H]1C[C@H]1c1ccccc1)C(=O)NCc1ccccc1)c1ccccc1
A549 [8]
  growth inhibition (GI): inactive

## O=C(N[C@@H](CCCCN[C@@H]1C[C@H]1c1ccccc1)C(=O)NCc1cccc(Cl)c1)c1ccc(-c2ccccc2)cc1
[3]
  IC50: > 100 µM
[4]
  IC50: > 100 µM
A549 [1]
  inhibition of growth at 10 µM: 100%
A549 [6]
  GI50: 8.6 µM
